Test results: patent US8728797B2, “Yeast membrane protein expression system and its application in drug screening” (priority 2001, dated 2014)
≈ marks a conversion by molar mass, not a printed value. Marks after values point to notes of the source that are not given here.

How the values were obtained:
[1] = system: AD1-8u^− derivative transformed with C. glabrata PDH1; test: MIC, PDH1 construct; format: cell-based, S. cerevisiae; settings: Nakaseomyces glabratus; PDH1 hyper-expressed
Method: (§1) The MICs of antifungal agents for S. cerevisiae cells were determined by a microdilution test based on the macrodilution reference method of the National Committee for Clinical Laboratory Standards. Cells (10 μl cell suspension, 2×10^5 cells/ml) were inoculated into 90 μl CSM-URA, buffered with 10 mM 2-(N-morpholino)ethanesulfonic acid (MES) and 18 mM N-2-hydroxyethylpiperazine-N′-2-ethanesulfonic acid (HEPES), pH 7.0 and containing 0.67% (w/v) yeast nitrogen base (YNB) in microtitre plate wells. For the uracil-requiring strain AD1-8u^− the medium was supplemented with 0.02% (w/v) uridine. The wells contained, in […], doubling dilutions of antifungal agents (final concentrations: fluconazole, 40-0.078 μg/ml; itraconazole and ketoconazole, 8-0.016 μg/ml). The microtitre plates were incubated at 30° C. for 48 h with shaking and then the growth of cells in individual wells (OD590) was measured with a microplate reader (EL 340, Bio-Tek, Winooski, Vt.). The MIC80 was the lowest concentration of drug that inhibited growth yield by at least 80% compared to a no-drug control.

[2] = system: S. cerevisiae AD1-8u^− hyper-expressing CDR1-2; test: MIC, CDR1 allele 2 hyper-expressed; format: cell-based; settings: Saccharomyces cerevisiae; hyper-expression of CDR1-2 allele
Method: as §1

[3] = system: selected respiratory competent construct expressing Cdr1p; test: MIC, corrected Cdr1p construct; format: cell-based, S. cerevisiae; settings: Saccharomyces cerevisiae; construct corrected with linear PCR fragment
Method: as §1

[4] = system: AD-CDR1 (Cdr1p); test: MIC in liquid microdilution assay, AD-CDR1; format: cell-based, S. cerevisiae; settings: Saccharomyces cerevisiae
Method: as §1

[5] = system: C. parapsilosis 425; test: Checkerboard chemosensitisation to fluconazole; format: cell-based; settings: KN20 0-80 μM and FCZ 32 μg/ml tested, no chemosensitisation
Method: Checkerboard drug susceptibility assays were used to measure the chemosensitisation of cells to fluconazole by test compounds such as Pdr5p inhibitors. […] Cell inocula, growth conditions and the optical determination of growth were identical to standard liquid MIC determinations. The assays were conducted in 6 by 6 well arrays centred in a 96 well microtitre plate using buffered CSM-URA medium at pH 7.0, with fluconazole and/or peptide included in each well at the indicated concentration.

Which MIC [1] does the source give for OC(Cn1cncn1)(Cn1cncn1)c1ccc(F)cc1F [fluconazole] here?
Its MIC is 200 µg/mL (≈ 653 µM).

And the MIC [2]?
Its MIC is 80 µg/mL (≈ 261 µM).

What about the MIC [3] of the same compound?
The MIC was 400 µg/mL (≈ 1310 µM).

And the MIC [4]?
The MIC was 400 µg/mL (≈ 1310 µM).

“D-octapeptide NH2-Asn-Trp-Trp-Lys-Val-Arg-Arg-Arg-CONH2 with a single 4-methoxy-2,3,6-trimethylbenzenesulphonyl (Mtr) substituent on one tryptophan sidechain; Pdr5p inhibitor [KN20]” was tested. Which “Fold-sensitisation by KN20 (For FCZ MIC)” value [5] did it give?
The value was 1^b fold.
